Laboratory results from patent publication US12134622B1, “2-benzo-[3,4-b]pyridine-[b,g]indeno[1,2;3,4]fluoreno-[1,2-d]oxonine-5,11,16,21-tetraone as an antimicrobial compound” (KING FAISAL UNIVERSITY, priority 2023, dated 2024).

Legend:
Candida albicans = assay: Antimicrobial screening, agar dilution method; assay type: cell-based; details: after 10, 20, 40 and 60 minutes at all dilutions 1:100, 1:200, 1:400, 1:800
Description: (§1) The antibacterial properties of the synthesized compound 2-benzo-[3,4-b]pyridine-[b,g]indeno[1′,2′:3,4]fluoreno-[1,2-d]oxonine-5,11,16,21-tetraone were studied by the method of agar dilution. Test solutions of each compound was prepared in concentration of 1% using dimethylformamide as a solvent then they are diluted in physiological solution to obtain the final experimental dilutions 1:100, 1:200, 1:400, 1:800. The effect of these substances are compared with furacillin in a controllable study. The testing microbes used were gram positive bacteria Staphylococcus aureus, gram negative bacteria Pseudomonas aeruginosa and Escherichia coli and Candida albicans fungus. The experiments used for this survey were meat-pentonlu agar (EPA) for cultivation of bacteria and Saburo environment for the fungus. Each experiment used 1 mL of test solution on each plate […]. Two drops of emulsified with microbes feel were added. All experimental samples were taken from the agar after 10, 20, 40, 60 minutes in the environment on the basis of Patrk planted. The bacteria were cultivated at a temperature of 37° C. for 1 day and the mushroom was kept in a thermostat for 2 hours at a temperature of 28° C. Then results were checked.

Escherichia coli = assay: Antimicrobial screening, agar dilution method; assay type: cell-based; details: after 10, 20, 40 and 60 minutes at all dilutions 1:100, 1:200, 1:400, 1:800
Description: as §1

Pseudomonas aeruginosa = assay: Antimicrobial screening, agar dilution method; assay type: cell-based; details: after 10, 20, 40 and 60 minutes at all dilutions 1:100, 1:200, 1:400, 1:800
Description: as §1

Staphylococcus aureus = assay: Antimicrobial screening, agar dilution method; assay type: cell-based; details: after 10, 20, 40 and 60 minutes at all dilutions 1:100, 1:200, 1:400, 1:800
Description: as §1

melting point: 270 to 271 °C
SMILES: O=C1Oc2ncccc2-c2c(c3c4ccccc4c(=O)c3c3c2c(=O)c2ccccc23)C(=O)c2ccccc21 [2-benzo-[3,4-b]pyridine-[b,g]indeno[1′,2′:3,4]fluoreno-[1,2-d]oxonine-5,11,16,21-tetraone]
inhibition activity (Candida albicans): highest inhibition activity | inhibition activity (Escherichia coli): highest inhibition activity | inhibition activity (Pseudomonas aeruginosa): highest inhibition activity | inhibition activity (Staphylococcus aureus): highest inhibition activity
